Active and inactive are the calls of the source.
Experiments:
[1] = LGR2 antagonists, dose response, cell-based, HEK293, CRE-luciferase reporter, cherry pick, set 2 (AID 743343); format: functional;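 further: transfected cells were stimulated with diluted bursicon conditioned medium after compound addition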
[2] = MC4R antagonists, dose response, counter-screen for LGR2 antagonist project, cell-based, plate reader, cherry pick (AID 743444); format: functional;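 further: transfected HEK 293 cells stimulated with alpha-MSH peptide; potency of inhibitors of the alpha-MSH evoked signal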
[3] = HepG2 cell cytotoxicity, dose response, cytotoxicity control, plate reader, cherry-pick, antagonist series (AID 743416); format: functional, cell-based
[4] = cells; format: functional, cell-based
[5] = A549 cell cytotoxicity, dose response, cytotoxicity control, plate reader, cherry-pick, antagonist series (AID 743412); format: functional, cell-based
[6] = cells; format: functional, cell-based; remark: listed apart in the source
[7] = HEK293 cell cytotoxicity, dose response, cytotoxicity control, plate reader, cherry-picked samples (AID 743446); format: functional, cell-based
[8] = target: T1, COUP transcription factor 2 (Homo sapiens, UniProt P24468); assay: Luminescence-based cell-based high throughput dose response assay to identify inhibitors of COUP-TFII (NR2F2).; format: functional;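 further: HEK293 cells transiently cotransfected with COUP-TFII expression vector and reporter; luciferase reporter luminescence driven by COUP-TFII from the pX2-168 reporter plasmid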
T1 sequence (P24468 whole entry): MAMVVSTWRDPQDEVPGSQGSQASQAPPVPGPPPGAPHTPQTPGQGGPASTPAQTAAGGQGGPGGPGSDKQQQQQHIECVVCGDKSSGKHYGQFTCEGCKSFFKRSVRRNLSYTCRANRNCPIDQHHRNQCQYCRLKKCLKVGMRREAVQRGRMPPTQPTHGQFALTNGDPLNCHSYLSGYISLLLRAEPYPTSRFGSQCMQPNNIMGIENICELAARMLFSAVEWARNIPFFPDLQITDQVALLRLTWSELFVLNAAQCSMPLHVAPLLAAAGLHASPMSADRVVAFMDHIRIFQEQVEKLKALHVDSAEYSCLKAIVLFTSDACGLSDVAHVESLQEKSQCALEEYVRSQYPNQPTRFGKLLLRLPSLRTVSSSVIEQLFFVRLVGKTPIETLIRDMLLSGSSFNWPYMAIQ

[9] = target: T2, Galanin receptor type 3 (Homo sapiens, UniProt O60755); assay: Fluorescence-based cell-based primary high throughput dose response assay to identify antagonists of the Galanin Receptor 3 (GalR3).; format: functional
T2 sequence (O60755 whole entry): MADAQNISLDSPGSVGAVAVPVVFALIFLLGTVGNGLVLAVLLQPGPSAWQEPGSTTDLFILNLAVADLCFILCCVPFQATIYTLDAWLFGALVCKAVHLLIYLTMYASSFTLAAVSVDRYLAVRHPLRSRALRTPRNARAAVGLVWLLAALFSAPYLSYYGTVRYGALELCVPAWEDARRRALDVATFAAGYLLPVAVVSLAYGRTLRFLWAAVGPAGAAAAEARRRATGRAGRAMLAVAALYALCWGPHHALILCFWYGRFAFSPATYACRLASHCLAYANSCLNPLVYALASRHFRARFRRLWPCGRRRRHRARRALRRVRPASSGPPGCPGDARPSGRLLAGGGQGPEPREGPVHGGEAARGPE

[10] = cells; format: functional, cell-based; conditions: HEK-CNG
[11] = target: T3, Caspase-6 (Homo sapiens, UniProt P55212); assay: human caspase-6 inhibitors, dose response, biochemical, VEID-R110 fluorescence, cherry-pick (AID 720632)
T3 sequence (P55212 whole entry): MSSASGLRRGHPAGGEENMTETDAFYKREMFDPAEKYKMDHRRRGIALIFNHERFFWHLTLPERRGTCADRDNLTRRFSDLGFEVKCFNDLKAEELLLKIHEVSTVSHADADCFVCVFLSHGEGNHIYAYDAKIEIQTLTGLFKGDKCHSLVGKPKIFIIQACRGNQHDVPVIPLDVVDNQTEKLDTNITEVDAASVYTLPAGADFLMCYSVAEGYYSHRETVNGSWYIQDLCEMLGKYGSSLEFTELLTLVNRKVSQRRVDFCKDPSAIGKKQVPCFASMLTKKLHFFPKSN

[12] = target: Disintegrin and metalloproteinase domain-containing protein 17 (Homo sapiens, UniProt P78536); assay: ADAM17 protease inhibitors, dose response, counter-screen for ADAM10 exosite inhibitor project, biochemical, quenched FRET substrate (AID 743253)
[13] = ADAM10 inhibitors, peptide cleavage, dose response, biochemical, QFRET (AID 743254);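 further: ADAM10 enzyme with the DM2 quenched FRET peptide as substrate; EDANS fluorescence gain as the protease cuts the substrate; inhibitor potency against ADAM10 proteolytic activity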
[14] = target: Paired box protein Pax-8 (Homo sapiens, UniProt Q06710); assay: inhibitors of PAX8-driven TPO luciferase reporter, dose response, RMG-I cells, cherry-pick (AID 687027); format: functional, cell-based;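 further: luciferase reporter driven by Pax8 target thyroperoxidase promoter measured by SteadyGlo luminescence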
[15] = non-specific cell cytotoxicity, dose response, cytotoxicity control for PAX8 inhibitor project, plate reader, dry powder samples (AID 743021); format: functional, cell-based
[16] = cytotoxicity in HEK-293T cells, dose response, cytotoxicity control for BCR NF-kB inhibitor project, luminescence, B-cell screen hits (AID 489021); format: functional, cell-based;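 further: HEK-293T cells carrying an NF-kB luciferase reporter; cells exposed to compound for about 14 hours before viability readout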
[17] = cytotoxicity toward NIH3T3 fibroblasts, dose response, counter-screen, cell-based, ATP luminescence, mouse fibroblasts (AID 2010); format: functional;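 further: cells exposed to compound for about 90 hours before reading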
[18] = inhibitors of intracellular T. cruzi replication, confirmation, NIH3T3 host cells, beta-gal luminescence (AID 2044); format: functional, cell-based;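 further: intracellular parasites grown in NIH/3T3 mouse fibroblasts as host cells; luminescent beta-galactosidase reporter signal from transgenic T. cruzi replicating inside host cells; inhibitors lower the luminescence signal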

Sequence of Disintegrin and metalloproteinase domain-containing protein 17 (P78536 whole entry, the tested form may be a part): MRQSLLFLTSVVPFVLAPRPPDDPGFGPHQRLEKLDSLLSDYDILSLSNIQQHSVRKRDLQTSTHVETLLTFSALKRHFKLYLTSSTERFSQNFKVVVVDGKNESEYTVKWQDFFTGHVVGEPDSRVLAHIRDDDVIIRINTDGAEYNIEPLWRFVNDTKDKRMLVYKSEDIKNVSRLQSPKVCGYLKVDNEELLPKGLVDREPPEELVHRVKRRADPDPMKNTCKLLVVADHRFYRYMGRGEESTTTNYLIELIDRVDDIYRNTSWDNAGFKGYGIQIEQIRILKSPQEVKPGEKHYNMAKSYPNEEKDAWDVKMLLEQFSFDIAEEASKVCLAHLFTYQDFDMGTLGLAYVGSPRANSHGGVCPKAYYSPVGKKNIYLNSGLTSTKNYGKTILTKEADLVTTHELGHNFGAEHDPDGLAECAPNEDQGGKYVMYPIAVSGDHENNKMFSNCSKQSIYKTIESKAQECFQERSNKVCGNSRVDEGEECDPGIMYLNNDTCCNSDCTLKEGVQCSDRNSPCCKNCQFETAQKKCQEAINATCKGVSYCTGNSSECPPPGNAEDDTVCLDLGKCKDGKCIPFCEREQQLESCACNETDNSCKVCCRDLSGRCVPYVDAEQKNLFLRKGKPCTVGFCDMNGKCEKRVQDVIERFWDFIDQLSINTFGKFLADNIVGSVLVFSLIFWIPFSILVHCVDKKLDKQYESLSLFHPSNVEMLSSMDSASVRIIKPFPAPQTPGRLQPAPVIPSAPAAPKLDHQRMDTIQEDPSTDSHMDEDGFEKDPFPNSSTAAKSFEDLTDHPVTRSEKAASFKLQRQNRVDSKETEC
Sequence of Paired box protein Pax-8 (Q06710 whole entry): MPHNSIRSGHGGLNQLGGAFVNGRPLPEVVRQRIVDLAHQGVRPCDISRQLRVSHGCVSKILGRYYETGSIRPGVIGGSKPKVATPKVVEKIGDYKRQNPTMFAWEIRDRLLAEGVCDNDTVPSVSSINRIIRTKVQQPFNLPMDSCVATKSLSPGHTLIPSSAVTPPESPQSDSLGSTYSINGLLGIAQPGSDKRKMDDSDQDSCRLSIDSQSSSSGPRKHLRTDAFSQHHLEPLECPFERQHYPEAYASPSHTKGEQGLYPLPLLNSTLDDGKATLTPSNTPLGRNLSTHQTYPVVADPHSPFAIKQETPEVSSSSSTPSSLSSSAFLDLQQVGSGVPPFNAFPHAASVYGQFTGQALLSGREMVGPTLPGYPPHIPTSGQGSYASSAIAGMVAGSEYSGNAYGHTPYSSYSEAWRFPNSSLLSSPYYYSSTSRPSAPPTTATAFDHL

## CN(c1cccc(Cl)c1)S(=O)(=O)c1cccc(C(=O)Nc2nc3ccccc3[nH]2)c1
[1]
  AC50: 24.5 µM (active)
[2]
  AC50: 19.6 µM (active)
[3]
  AC50: 22.1 µM (active)
[4]
  EC50: 27.2 µM (active)
[5]
  AC50: 14 µM (active)
[6]
  EC50: > 350 µM (not active)
[7]
  AC50: 21.1 µM (active)

## Cc1cccc(Cl)c1NC(=O)N1CCCN(c2nc3ccc(Cl)cc3s2)CC1
[8]
  IC50: 11.3 µM (inactive)
[9]
  IC50: 2.06 µM (active)
[10]
  EC50: > 29.9 µM (inactive)

## O=C(O)c1ccc([N+](=O)[O-])c([N+](=O)[O-])c1
[11]
  AC50: 12.3 µM (active)

## CCCCC[C@H](C)N1C[C@@H](COCc2ccccc2)Oc2cc(N3CC[C@H](O)C3)ccc2S1(=O)=O
[12]
  IC50: > 69.5 µM (inactive)
[13]
  IC50: 8.14 µM (active)

## C[C@@H]1CCCCO[C@H](CN(C)C(=O)NC2CCCCC2)[C@H](C)CN([C@@H](C)CO)C(=O)c2cc(NS(=O)(=O)c3ccc(Cl)cc3)ccc2O1
[14]
  AC50: 10.5 µM (active)
[15]
  AC50: 52.5 µM (active)

## CCCCCCCCN1C(=O)[C@@H](CC(=O)NCc2ccc(OC)c(OC)c2)C[C@@]2(C(=O)OC)C1=C[C@H](C(C)C)O[C@@H]2C1CC1
[12]
  IC50: > 69.5 µM (inactive)
[13]
  IC50: 10.8 µM (inactive)

## COc1ccccc1NC(=O)C(=N\O)/C(C)=N/O
[11]
  AC50: 11.2 µM (active)

## COc1ccc(/C=N/OCC(=O)NC(c2ccccc2)c2ccccc2)cc1OC
[8]
  IC50: 5.09 µM (active)
[16]
  IC50: > 80 µM (inactive)
[9]
  IC50: 1.23 µM (active)
[17]
  EC50: > 60 µM (not active)
[10]
  EC50: > 29.9 µM (inactive)
[18]
  EC50: 0.56 µM (active)

## O=C(C(=O)c1cc(Br)ccc1O)c1cc(Br)ccc1O
[9]
  IC50: 1.1 µM (active)
[10]
  EC50: > 29.9 µM (inactive)

Reference: ChEMBL document CHEMBL1201862, “PubChem BioAssay data set” (2004)
